Columns and labels:
[1] = system: Human immunodeficiency virus 1; test: Antiviral activity against drug-resistant HIV-1 harboring RT F227L/V106A mutant infected in human MT4 cells assessed as protection against virus-induced cytopathicity measured after 5 days post-infection by MTT assay; type: functional, organism-based; conditions: Human immunodeficiency virus 1, MT4, 120 h
[2] = system: Human immunodeficiency virus 1; test: Antiviral activity against drug-resistant HIV-1 harboring RT RES056 mutant infected in human MT4 cells assessed as protection against virus-induced cytopathicity measured after 5 days post-infection by MTT assay; type: functional, organism-based; conditions: Human immunodeficiency virus 1, MT4, 120 h
[3] = system: Human immunodeficiency virus 1; test: Antiviral activity against drug-resistant HIV-1 harboring RT E138K mutant infected in human MT4 cells assessed as protection against virus-induced cytopathicity measured after 5 days post-infection by MTT assay; type: functional, organism-based; conditions: Human immunodeficiency virus 1, MT4, 120 h
[4] = system: Human immunodeficiency virus 1; test: Antiviral activity against drug-resistant HIV-1 harboring RT Y188L mutant infected in human MT4 cells assessed as protection against virus-induced cytopathicity measured after 5 days post-infection by MTT assay; type: functional, organism-based; conditions: Human immunodeficiency virus 1, MT4, 120 h
[5] = system: Human immunodeficiency virus 1; test: Antiviral activity against drug-resistant HIV-1 harboring RT K103N mutant infected in human MT4 cells assessed as protection against virus-induced cytopathicity measured after 5 days post-infection by MTT assay; type: functional, organism-based; conditions: Human immunodeficiency virus 1, MT4, 120 h
[6] = system: Human immunodeficiency virus 1; test: Antiviral activity against wild-type HIV-1 IIIB infected in human MT4 cells assessed as protection against virus-induced cytopathicity measured after 5 days post-infection by MTT assay; type: functional, organism-based; conditions: Human immunodeficiency virus 1, IIIB, MT4, 120 h
[7] = Selectivity index, ratio of CC50 for cytotoxicity against human MT4 cells to EC50 for antiviral activity against wild-type HIV-1 IIIB infected in human MT4 cells; type: toxicity, cell-based; conditions: read-out: Ratio CC50/EC50
[8] = system: Human immunodeficiency virus 1; test: Antiviral activity against drug-resistant HIV-1 harboring RT L100I mutant infected in human MT4 cells assessed as protection against virus-induced cytopathicity measured after 5 days post-infection by MTT assay; type: functional, organism-based; conditions: Human immunodeficiency virus 1, MT4, 120 h
[9] = system: Human immunodeficiency virus 1; test: Antiviral activity against drug-resistant HIV-1 harboring RT Y181C mutant infected in human MT4 cells assessed as protection against virus-induced cytopathicity measured after 5 days post-infection by MTT assay; type: functional, organism-based; conditions: Human immunodeficiency virus 1, MT4, 120 h
[10] = Cytotoxicity against human MT4 cells assessed as reduction in cell viability by MTT assay; type: toxicity, cell-based
[11] = biological target: Human immunodeficiency virus type 1 reverse transcriptase (Human immunodeficiency virus 1, UniProt Q72547); test: Inhibition of recombinant wild type HIV-1 reverse transcriptase incubated for 40 mins in presence of poly(rA) template/oligo(dT)16 primer by Pico-Green dye based analysis
[12] = Metabolic stability in human liver microsomes assessed as half life at 1 uM measured up to 45 mins by LC/MS/MS analysis; type: ADME, Microsome; conditions: liver microsomes
[13] = Stability in human plasma assessed as compound remaining at 1 uM measured immediately by LC-MS/MS analysis; type: ADME, cell-free; conditions: read-out: Stability
[14] = Stability in human plasma assessed as compound remaining at 1 uM measured after 3 hrs by LC-MS/MS analysis; type: ADME, cell-free; conditions: read-out: Stability

SMILES | EC50 [1] [nM] | EC50 [2] [nM] | EC50 [3] [nM] | EC50 [4] [nM] | EC50 [5] [nM] | EC50 [6] [nM] | selectivity ratio [7] | EC50 [8] [nM] | EC50 [9] [nM] | CC50 [10] [µM] | IC50 [11] [nM] | half-life at 1 µM [12] [min] | remaining at 0 h, 1 µM [13] [%] | remaining at 3 h, 1 µM [14] [%]
[2H]C([2H])([2H])c1cc(C#N)cc(C)c1Oc1nc(NC2CCN(Cc3ccc(C(N)=O)cc3)CC2)nc2ccccc12 | 1270 | 1810 | 63.1 | 67.8 | 4.86 | 5.4 | 27900 | 14.5 | 47 | 150 | 210 | – | – | –
[2H]C([2H])([2H])c1cc(C#N)cc(C)c1Oc1nc(NC2CCN(Cc3ccc(S(N)(=O)=O)cc3)CC2)nc2scnc12 | 181 | 57.6 | 28.1 | 45.5 | 4.39 | 2.8 | 5320 | 10.9 | 10.1 | 14.9 | 150 | – | – | –
[2H]C([2H])([2H])c1cc(C#N)cc(C)c1Oc1nc(NC2CCN(Cc3ccc(C(N)=O)cc3)CC2)nc2ccsc12 | 65.2 | 887 | 53.5 | 59.9 | 11.2 | 12.8 | > 18900 | 68.2 | 65.3 | > 242 | 150 | – | – | –
Cc1ccnc2c1NC(=O)c1cccnc1N2C1CC1 [NEVIRAPINE] | 7320 | > 15000 | 237 | > 15000 | 4710 | 253 | – | 1270 | – | > 15 | – | – | – | –
[2H]C([2H])([2H])c1cc(C#N)cc(C)c1Oc1nc(NC2CCN(Cc3ccc(S(N)(=O)=O)cc3)CC2)nc2sccc12 | 428 | 148 | 49.7 | 55.5 | 8.84 | 6.39 | > 35500 | 17.4 | 21.2 | > 227 | 160 | – | – | –
[2H]C([2H])([2H])c1cc(-c2ccc(C#N)cc2)cc(C)c1Nc1ccnc(Nc2ccc(C#N)cc2)n1 | 626 | 58.6 | 8.64 | 57.5 | 3.81 | 2.5 | 2370 | 2.74 | 6.14 | 5.94 | 380 | 16.6 | – | –
[2H]C([2H])([2H])c1cc(C#N)cc(C([2H])([2H])[2H])c1Oc1nc(NC2CCN(Cc3ccc(S(N)(=O)=O)cc3)CC2)nc2ccccc12 | 59.8 | 276 | 37.4 | 150 | 8.7 | 5.47 | 4440 | 16.8 | 50.7 | 24.3 | 230 | – | – | –
[2H]C([2H])([2H])c1cc(C#N)cc(C([2H])([2H])[2H])c1Oc1nc(NC2CCN(Cc3ccc(S(N)(=O)=O)cc3)CC2)nc2sccc12 | 8.79 | 141 | 19.5 | 10.4 | 4.28 | 6.53 | > 34500 | 6.44 | 11.2 | > 225 | 160 | – | – | –
[2H]C([2H])([2H])c1cc(C#N)cc(C([2H])([2H])[2H])c1Oc1nc(NC2CCN(Cc3ccc(C(N)=O)cc3)CC2)nc2sccc12 | 724 | 496 | 62.3 | 61.6 | 4.58 | 4.19 | > 57500 | 21.6 | 53.8 | > 241 | 140 | – | – | –
[2H]C([2H])([2H])c1cc(-c2ccc(C#N)cc2)cc(C([2H])([2H])[2H])c1Nc1ccnc(Nc2ccc(C#N)cc2)n1 | 697 | 68.8 | 8.93 | 55.1 | 2.9 | 1.83 | 3260 | 2.72 | 7.57 | 5.98 | 380 | 16.7 | – | –
[2H]C([2H])([2H])c1cc(C#N)cc(C([2H])([2H])[2H])c1Oc1nc(NC2CCN(Cc3ccc(C(N)=O)cc3)CC2)nc2scnc12 | 161 | 166 | 11.3 | 52.1 | 2.79 | 2.36 | 9130 | 12.8 | 11.6 | 21.5 | 160 | – | – | –
Cc1cc(-c2ccc(C#N)cc2)cc(C)c1Nc1ccnc(Nc2ccc(C#N)cc2)n1 | 796 | 54.3 | 8.16 | 40.5 | 2.88 | 1.86 | 3280 | 4.02 | 7.26 | 6.11 | 340 | – | – | –
[2H]C([2H])([2H])c1cc(C#N)cc(C([2H])([2H])[2H])c1Oc1nc(NC2CCN(Cc3ccc(C(N)=O)cc3)CC2)nc2ccccc12 | 186 | 1390 | 38.1 | 60.7 | 23.6 | 7.31 | 12300 | 32.9 | 61.8 | 90.2 | 210 | – | – | –
[2H]C([2H])([2H])c1cc(/C=C/C#N)cc(C([2H])([2H])[2H])c1Nc1ccnc(Nc2ccc(C#N)cc2)n1 | 76.2 | 13.2 | 5.84 | – | 1.81 | 1.41 | – | 2.42 | 2.75 | 6.59 | 20 | 22.8 | – | –
O=C1Nc2ccc(Cl)cc2[C@@](C#CC2CC2)(C(F)(F)F)O1 [EFAVIRENZ] | 203 | – | 8.32 | – | 99.2 | – | – | 41.8 | – | > 6.34 | – | – | – | –
[2H]C([2H])([2H])c1cc(C#N)cc(C([2H])([2H])[2H])c1Oc1nc(NC2CCN(Cc3ccc(C(N)=O)cc3)CC2)nc2ccsc12 | 78.2 | 1740 | 59.8 | 57.6 | 6.75 | 5.11 | > 47200 | 44.3 | 46.8 | > 241 | 140 | – | – | –
[2H]C([2H])([2H])c1cc(C#N)cc(C)c1Oc1nc(NC2CCN(Cc3ccc(S(N)(=O)=O)cc3)CC2)nc2ccccc12 | 44.3 | 245 | 10.6 | 54.2 | 6.92 | 3.07 | > 74600 | 8.11 | 12.9 | > 229 | 210 | – | – | –
[2H]C([2H])([2H])c1cc(C#N)cc(C)c1Oc1nc(NC2CCN(Cc3ccc(S(N)(=O)=O)cc3)CC2)nc2ccsc12 | 9.97 | 217 | 12.6 | 12 | 3.67 | 5.77 | 31200 | 8.56 | 12.1 | 178 | 190 | – | – | –
CC[C@H](C)C(=O)O[C@H]1C[C@@H](C)C=C2C=C[C@H](C)[C@H](CC[C@@H]3C[C@@H](O)CC(=O)O3)[C@H]21 [LOVASTATIN] | – | – | – | – | – | – | – | – | – | – | – | – | 100 | 33.3
[2H]C([2H])([2H])c1cc(C#N)cc(C([2H])([2H])[2H])c1Oc1nc(NC2CCN(Cc3ccc(S(N)(=O)=O)cc3)CC2)nc2scnc12 | 46.4 | 86.4 | 10.3 | 46 | 2.2 | 2.16 | 8290 | 10.8 | 8.05 | 17.9 | 190 | – | – | –
[2H]C([2H])([2H])c1cc(C#N)cc(C)c1Oc1nc(NC2CCN(Cc3ccc(C(N)=O)cc3)CC2)nc2sccc12 | 71.5 | 320 | 63.5 | 94.5 | 18.1 | 8.92 | > 27200 | 29.2 | 47.6 | > 242 | 120 | – | – | –
[2H]C([2H])([2H])c1cc(C#N)cc(C)c1Oc1nc(NC2CCN(Cc3ccc(C(N)=O)cc3)CC2)nc2scnc12 | 103 | 143 | 10.4 | 52.9 | 4.31 | 2.03 | 10800 | 13.3 | 10.4 | 22 | 170 | – | – | –
[2H]C([2H])([2H])c1cc(/C=C/C#N)cc(C)c1Nc1ccnc(Nc2ccc(C#N)cc2)n1 | 69.8 | 12.9 | 4.6 | 72.6 | 1.96 | 1.17 | – | 2.3 | 2.71 | 6.56 | 30 | 19.4 | – | –
